From PubChem BioAssay (NCI)
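All cell lines were grown in 96-well plates and treated with compound for 48 hours. TGI: total growth inhibition.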

What was measured:
Assay in all cases: growth of human tumour cells (NCI), 48 h
[1] = test system: RPMI-8226 leukemia
[2] = test system: HS 578T breast
[3] = test system: SK-MEL-5 melanoma
[4] = test system: OVCAR-5 ovarian
[5] = test system: A549 NSCLC
[6] = test system: K-562 leukemia
[7] = test system: OVCAR-3 ovarian
[8] = test system: SK-MEL-28 melanoma
[9] = test system: NCI/ADR-RES ovarian
[10] = test system: U251 CNS
[11] = test system: OVCAR-4 ovarian
[12] = test system: A498 renal
[13] = test system: HCT-15 colon

O=C1C=CC=C/C1=C1\N=C(c2ccccc2OCC(=O)c2ccc(Br)cc2)SS1
TGI [1]: > 100 µM
TGI [2]: 76.2 µM
TGI [3]: > 100 µM
TGI [4]: > 100 µM
TGI [5]: > 100 µM
TGI [6]: > 100 µM
TGI [7]: > 100 µM
TGI [8]: > 100 µM
TGI [9]: > 100 µM
TGI [10]: > 100 µM
TGI [11]: > 100 µM
TGI [12]: > 100 µM
TGI [13]: > 100 µM

COc1cc(O)c2c(c1)OCC(Cc1ccc(O)cc1)C2=O (stereo not drawn)
TGI [1]: > 100 µM
TGI [2]: > 100 µM
TGI [3]: > 100 µM
TGI [4]: > 100 µM
TGI [5]: > 100 µM
TGI [6]: > 100 µM
TGI [7]: > 100 µM
TGI [8]: > 100 µM
TGI [9]: > 100 µM
TGI [10]: > 100 µM
TGI [11]: > 100 µM
TGI [12]: > 100 µM
TGI [13]: > 100 µM

N#Cc1nc(C2=C(Cl)c3ccccc3OC2)[nH]c1C#N
TGI [1]: 61 µM
TGI [2]: > 100 µM
TGI [3]: 51.1 µM
TGI [4]: > 100 µM
TGI [5]: > 100 µM
TGI [6]: > 100 µM
TGI [7]: 70.9 µM
TGI [8]: 56.8 µM
TGI [9]: > 100 µM
TGI [10]: 75.9 µM
TGI [11]: > 100 µM
TGI [12]: 66.1 µM
TGI [13]: > 100 µM

Cc1ccc(/C=C2\CCC/C(=C\c3ccc(O)c(CN4CCCCC4)c3)C2=O)cc1
TGI [1]: > 100 µM
TGI [2]: 38.5 µM
TGI [3]: 19.1 µM
TGI [4]: 38.9 µM
TGI [5]: > 49.3 µM
TGI [6]: > 38.3 µM
TGI [7]: 36.5 µM
TGI [8]: > 53.5 µM
TGI [9]: 12 µM
TGI [10]: 37.6 µM
TGI [11]: 33 µM
TGI [12]: 13.9 µM
TGI [13]: 18.3 µM

CC(C)(C)c1ccc(-c2nc3ccc(Cl)cc3c(=O)o2)cc1
TGI [1]: 54.1 µM
TGI [2]: > 100 µM
TGI [3]: 26.2 µM
TGI [4]: 80.9 µM
TGI [5]: 53 µM
TGI [6]: 67.8 µM
TGI [7]: 34.6 µM
TGI [8]: 57.2 µM
TGI [9]: 67.1 µM
TGI [10]: 31.3 µM
TGI [11]: 63.1 µM
TGI [12]: 79.4 µM
TGI [13]: 49.5 µM

Cc1ccc(NC(=O)c2cccc(OP(=O)(O)Nc3ccc(C)cc3)c2)cc1
TGI [1]: > 100 µM
TGI [2]: > 100 µM
TGI [3]: > 100 µM
TGI [4]: > 100 µM
TGI [5]: > 100 µM
TGI [6]: > 100 µM
TGI [7]: > 100 µM
TGI [8]: > 100 µM
TGI [9]: > 100 µM
TGI [10]: > 100 µM
TGI [11]: > 100 µM
TGI [12]: > 100 µM
TGI [13]: > 100 µM

NC(N)=N/N=C/c1c(-c2cccc([N+](=O)[O-])c2)nc2n1CCS2
TGI [1]: > 100 µM
TGI [2]: 32.1 µM
TGI [3]: 32.5 µM
TGI [4]: > 100 µM
TGI [5]: 41 µM
TGI [6]: > 100 µM
TGI [7]: 63 µM
TGI [8]: 41.5 µM
TGI [9]: > 100 µM
TGI [10]: 41.7 µM
TGI [11]: 29.8 µM
TGI [12]: 32.9 µM
TGI [13]: > 100 µM

COC(=O)CCc1cc(O)c2c(c1)C(C(=O)OC)C(c1ccc(O)c(O)c1)O2 (stereo not drawn)
TGI [1]: > 92.9 µM
TGI [2]: > 95.9 µM
TGI [3]: 20.4 µM
TGI [4]: > 100 µM
TGI [5]: > 100 µM
TGI [6]: 10.6 µM
TGI [7]: > 67.1 µM
TGI [8]: > 100 µM
TGI [9]: > 100 µM
TGI [10]: > 95 µM
TGI [11]: > 100 µM
TGI [12]: > 84.5 µM
TGI [13]: > 100 µM

CNc1nc2n(CCO)c(-c3ccccc3)c(-c3ccccc3)nc-2c(=O)n1
TGI [1]: > 50 µM
TGI [2]: > 50 µM
TGI [3]: > 50 µM
TGI [4]: > 50 µM
TGI [5]: > 50 µM
TGI [6]: > 50 µM
TGI [7]: > 50 µM
TGI [8]: > 50 µM
TGI [9]: > 50 µM
TGI [10]: > 50 µM
TGI [11]: > 50 µM
TGI [12]: > 50 µM
TGI [13]: > 50 µM

COC(=O)C1C(=O)C=CN([C@H](C)c2ccccc2)[C@@H]1Cc1ccc(OC)c(OCc2ccccc2)c1I (stereo partly drawn)
TGI [1]: > 100 µM
TGI [2]: > 100 µM
TGI [3]: 27.4 µM
TGI [4]: 92.7 µM
TGI [5]: 71.9 µM
TGI [6]: > 100 µM
TGI [7]: 28.2 µM
TGI [8]: > 100 µM
TGI [9]: 42.9 µM
TGI [10]: 39.7 µM
TGI [11]: 79.9 µM
TGI [12]: 34.8 µM
TGI [13]: 27 µM

CCn1c(SCC(=O)NNC(=S)Nc2ccc(C)cc2)nc2ccccc2c1=O
TGI [1]: > 100 µM
TGI [2]: > 100 µM
TGI [3]: > 100 µM
TGI [4]: > 100 µM
TGI [5]: > 100 µM
TGI [6]: > 100 µM
TGI [7]: > 100 µM
TGI [8]: > 100 µM
TGI [9]: > 100 µM
TGI [10]: > 100 µM
TGI [11]: > 100 µM
TGI [12]: > 100 µM
TGI [13]: > 100 µM

CN(C)/C=N/S(=O)(=O)c1nn2c(C=O)c(-c3ccc(Cl)cc3)nc2s1
TGI [1]: 4.22 µM
TGI [2]: > 22 µM
TGI [3]: 2.98 µM
TGI [4]: 5.55 µM
TGI [5]: 20.2 µM
TGI [6]: 3.04 µM
TGI [7]: 2.87 µM
TGI [8]: 3.33 µM
TGI [9]: 10.6 µM
TGI [10]: 11.7 µM
TGI [11]: 3.58 µM
TGI [12]: 30.3 µM
TGI [13]: 5.63 µM

Cc1ccc(NC(=S)N/N=C(/c2ccccc2)c2ccccn2)cc1
TGI [1]: > 58.4 µM
TGI [2]: 81.8 µM
TGI [3]: 5.08 µM
TGI [4]: 2.07 µM
TGI [5]: 15.7 µM
TGI [6]: 4.61 µM
TGI [7]: 12.5 µM
TGI [8]: 2.32 µM
TGI [9]: > 80.2 µM
TGI [10]: 12.9 µM
TGI [11]: 16.6 µM
TGI [12]: 11.2 µM
TGI [13]: 15.6 µM

COC1(OC)CC(CO)(CNc2nc(N)nc(Cl)c2/C=N\O)C1
TGI [1]: > 100 µM
TGI [2]: > 100 µM
TGI [3]: > 100 µM
TGI [4]: > 100 µM
TGI [5]: > 100 µM
TGI [6]: > 100 µM
TGI [7]: > 100 µM
TGI [8]: > 100 µM
TGI [9]: > 100 µM
TGI [10]: > 100 µM
TGI [11]: > 100 µM
TGI [12]: 98.5 µM
TGI [13]: > 100 µM

CC(=NNC(=S)Nc1ccc(C)cc1)c1cccc(C(C)=NNC(=S)Nc2ccc(C)cc2)n1
TGI [1]: 85.8 µM
TGI [2]: > 100 µM
TGI [3]: 38.7 µM
TGI [4]: > 100 µM
TGI [5]: > 100 µM
TGI [6]: 66.3 µM
TGI [7]: 14.3 µM
TGI [8]: > 100 µM
TGI [9]: 58.8 µM
TGI [10]: 97 µM
TGI [11]: 89.1 µM
TGI [12]: 80.9 µM
TGI [13]: > 100 µM

CC1ON2CCCC2[C@H]1C(=O)N1C2CC3CCC2(CS1(=O)=O)C3(C)C (stereo partly drawn)
TGI [1]: > 100 µM
TGI [2]: > 100 µM
TGI [3]: > 100 µM
TGI [4]: > 100 µM
TGI [5]: > 100 µM
TGI [6]: > 100 µM
TGI [7]: > 100 µM
TGI [8]: > 100 µM
TGI [9]: > 100 µM
TGI [10]: > 100 µM
TGI [11]: > 100 µM
TGI [12]: > 100 µM
TGI [13]: > 100 µM
